How the values were obtained:
[1] = Apparent volume of distribution in Sprague-Dawley rat at 1 mg/kg, iv up to 24 hrs by LC-MS/MS analysis; assay type: ADME, organism-based; conditions: in vivo, read-out: Vz
[2] = Half life in rat liver microsomes; assay type: ADME, Microsome
[3] = Cmax in Sprague-Dawley rat at 5 mg/kg, po up to 24 hrs by LC-MS/MS analysis; assay type: ADME, organism-based; design: route oral, dose 5 mg/kg, time <=24; conditions: in vivo
HT-29 = assay: cells; conditions: Homo sapiens, HT-29, 72 h
[4] = Clearance in Sprague-Dawley rat at 5 mg/kg, po up to 24 hrs by LC-MS/MS analysis; assay type: ADME, organism-based; conditions: in vivo
[5] = AUC (0 to infinity) in Sprague-Dawley rat at 5 mg/kg, po up to 24 hrs by LC-MS/MS analysis; assay type: ADME, organism-based; design: route oral, dose 5 mg/kg, time <=24; conditions: in vivo
Angiopoietin-1 receptor = Angiopoietin-1 receptor (Homo sapiens, UniProt Q02763); assay: Inhibition of TEK (unknown origin) using biotin as substrate preincubated for 5 mins followed by substrate addition and measured after 30 to 60 mins by HTRF assay
[6] = Clearance in Sprague-Dawley rat at 1 mg/kg, iv up to 24 hrs by LC-MS/MS analysis; assay type: ADME, organism-based; conditions: in vivo
[7] = Antitumour activity against human U87MG cells xenografted in athymic nude mouse assessed as tumour growth inhibition at 6 mg/kg, po for 21 days relative to control; assay type: functional, U87; conditions: U-87 MG, 504 h, time 21 day, read-out: TGI
[8] = Antitumour activity against human U87MG cells xenografted in athymic nude mouse assessed as tumour growth inhibition at 37.5 mg/kg, po for 21 days relative to control; assay type: functional, U87; conditions: U-87 MG, 504 h, time 21 day, read-out: TGI
[9] = target: Vascular endothelial growth factor receptor 3 (Homo sapiens, UniProt P35916); assay: Inhibition of FLT4 (unknown origin) using biotin as substrate preincubated for 5 mins followed by substrate addition and measured after 30 to 60 mins by HTRF assay
[10] = AUC (0 to infinity) in Sprague-Dawley rat at 1 mg/kg, iv up to 24 hrs by LC-MS/MS analysis; assay type: ADME, organism-based; design: route intravenous, dose 1 mg/kg, time <=24; conditions: in vivo
[11] = Half life in Sprague-Dawley rat at 1 mg/kg, iv up to 24 hrs by LC-MS/MS analysis; assay type: ADME, organism-based; conditions: in vivo
[12] = Apparent volume of distribution in Sprague-Dawley rat at 5 mg/kg, po up to 24 hrs by LC-MS/MS analysis; assay type: ADME, organism-based; conditions: in vivo
cells = conditions: Homo sapiens, U-87 MG, 72 h
animal or person = conditions: Homo sapiens, U-87 MG, po, 504 h, read-out: TGI
[13] = Tmax in Sprague-Dawley rat at 5 mg/kg, po up to 24 hrs by LC-MS/MS analysis; assay type: ADME, organism-based; conditions: in vivo
NCI-H460 = assay: cells; conditions: Homo sapiens, NCI-H460, 72 h
[14] = Half life in Sprague-Dawley rat at 5 mg/kg, po up to 24 hrs by LC-MS/MS analysis; assay type: ADME, organism-based; conditions: in vivo
[15] = Oral bioavailability in Sprague-Dawley rat at 5 mg/kg up to 24 hrs by LC-MS/MS analysis; assay type: ADME, organism-based; conditions: in vivo
MKN-45 = assay: cells; conditions: Homo sapiens, MKN-45, 72 h
U87 = assay: Antitumour activity against human U87MG cells xenografted in po dosed athymic nude mouse assessed as tumour growth inhibition for 21 days; assay type: functional, organism-based; conditions: dose 3-37.5 mg/kg, time 21.0 day
[16] = Cmax in Sprague-Dawley rat at 1 mg/kg, iv up to 24 hrs by LC-MS/MS analysis; assay type: ADME, organism-based; design: route intravenous, dose 1 mg/kg, time <=24; conditions: in vivo
[17] = Antitumour activity against human U87MG cells xenografted in athymic nude mouse assessed as tumour growth inhibition at 3 mg/kg, po for 21 days relative to control; assay type: functional, U87; conditions: U-87 MG, 504 h, time 21 day, read-out: TGI
[18] = target: T1, Tyrosine-protein kinase receptor UFO (Homo sapiens, UniProt P30530); assay: Inhibition of AXL (unknown origin) using biotin as substrate preincubated for 5 mins followed by substrate addition and measured after 30 to 60 mins by HTRF assay
T1 sequence (P30530 whole entry): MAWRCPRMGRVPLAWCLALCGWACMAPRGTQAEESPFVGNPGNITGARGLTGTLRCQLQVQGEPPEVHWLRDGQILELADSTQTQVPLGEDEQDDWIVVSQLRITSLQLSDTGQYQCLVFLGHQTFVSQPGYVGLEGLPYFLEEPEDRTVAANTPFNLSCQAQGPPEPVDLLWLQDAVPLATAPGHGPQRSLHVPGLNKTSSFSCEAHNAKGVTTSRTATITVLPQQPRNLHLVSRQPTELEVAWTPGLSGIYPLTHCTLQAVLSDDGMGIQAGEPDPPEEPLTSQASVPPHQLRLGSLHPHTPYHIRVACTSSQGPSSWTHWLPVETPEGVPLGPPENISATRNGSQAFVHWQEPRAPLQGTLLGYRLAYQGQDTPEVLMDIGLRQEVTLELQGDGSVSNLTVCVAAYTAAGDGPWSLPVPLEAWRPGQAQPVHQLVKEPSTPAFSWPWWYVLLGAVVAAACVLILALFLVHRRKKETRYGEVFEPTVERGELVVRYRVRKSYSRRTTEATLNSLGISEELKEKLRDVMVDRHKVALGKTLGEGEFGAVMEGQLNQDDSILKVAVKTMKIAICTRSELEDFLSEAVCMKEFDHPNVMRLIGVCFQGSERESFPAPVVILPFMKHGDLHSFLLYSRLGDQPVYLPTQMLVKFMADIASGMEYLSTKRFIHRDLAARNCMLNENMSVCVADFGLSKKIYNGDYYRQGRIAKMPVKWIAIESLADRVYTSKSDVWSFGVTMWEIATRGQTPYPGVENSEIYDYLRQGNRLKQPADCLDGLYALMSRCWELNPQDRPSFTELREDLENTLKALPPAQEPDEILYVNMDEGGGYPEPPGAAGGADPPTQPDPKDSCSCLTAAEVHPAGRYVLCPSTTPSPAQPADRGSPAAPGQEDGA

[19] = target: Hepatocyte growth factor receptor (Homo sapiens, UniProt P08581)
Hepatocyte growth factor receptor, sequence (P08581 whole entry): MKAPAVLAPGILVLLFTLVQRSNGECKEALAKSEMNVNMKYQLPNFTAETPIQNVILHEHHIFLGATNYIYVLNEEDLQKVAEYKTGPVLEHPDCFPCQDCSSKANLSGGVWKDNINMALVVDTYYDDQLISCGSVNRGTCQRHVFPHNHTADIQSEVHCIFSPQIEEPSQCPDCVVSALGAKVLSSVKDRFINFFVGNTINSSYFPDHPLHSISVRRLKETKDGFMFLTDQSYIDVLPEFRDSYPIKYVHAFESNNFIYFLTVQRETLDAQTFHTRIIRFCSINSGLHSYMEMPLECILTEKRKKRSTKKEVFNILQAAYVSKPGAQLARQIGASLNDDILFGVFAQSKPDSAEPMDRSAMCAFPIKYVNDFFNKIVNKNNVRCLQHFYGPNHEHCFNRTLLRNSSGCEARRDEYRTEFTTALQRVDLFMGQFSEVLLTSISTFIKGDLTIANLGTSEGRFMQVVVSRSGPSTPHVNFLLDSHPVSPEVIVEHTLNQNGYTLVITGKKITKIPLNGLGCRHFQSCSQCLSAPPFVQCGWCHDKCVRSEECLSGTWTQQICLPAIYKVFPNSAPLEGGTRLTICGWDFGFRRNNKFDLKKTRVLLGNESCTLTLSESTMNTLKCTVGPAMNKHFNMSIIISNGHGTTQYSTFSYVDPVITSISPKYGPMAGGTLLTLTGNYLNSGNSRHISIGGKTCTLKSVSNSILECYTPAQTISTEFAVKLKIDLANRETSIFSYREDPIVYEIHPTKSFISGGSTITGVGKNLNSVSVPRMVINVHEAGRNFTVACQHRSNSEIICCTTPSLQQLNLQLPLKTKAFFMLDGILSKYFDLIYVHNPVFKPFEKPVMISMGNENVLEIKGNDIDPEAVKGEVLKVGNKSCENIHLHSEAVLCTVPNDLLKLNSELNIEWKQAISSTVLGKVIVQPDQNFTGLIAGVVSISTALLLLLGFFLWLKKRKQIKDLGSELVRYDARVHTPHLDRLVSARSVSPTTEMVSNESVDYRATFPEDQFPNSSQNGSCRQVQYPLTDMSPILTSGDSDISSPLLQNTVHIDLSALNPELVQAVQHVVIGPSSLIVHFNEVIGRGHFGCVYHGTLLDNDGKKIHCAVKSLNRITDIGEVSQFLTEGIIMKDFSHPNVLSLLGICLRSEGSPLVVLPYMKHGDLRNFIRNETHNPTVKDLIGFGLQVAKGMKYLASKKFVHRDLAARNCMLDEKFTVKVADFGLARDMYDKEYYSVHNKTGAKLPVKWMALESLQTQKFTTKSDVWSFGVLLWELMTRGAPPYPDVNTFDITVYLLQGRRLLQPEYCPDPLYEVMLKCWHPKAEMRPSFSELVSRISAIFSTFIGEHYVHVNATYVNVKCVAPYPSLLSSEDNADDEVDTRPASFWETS

Vascular endothelial growth factor receptor 3, sequence (P35916 whole entry): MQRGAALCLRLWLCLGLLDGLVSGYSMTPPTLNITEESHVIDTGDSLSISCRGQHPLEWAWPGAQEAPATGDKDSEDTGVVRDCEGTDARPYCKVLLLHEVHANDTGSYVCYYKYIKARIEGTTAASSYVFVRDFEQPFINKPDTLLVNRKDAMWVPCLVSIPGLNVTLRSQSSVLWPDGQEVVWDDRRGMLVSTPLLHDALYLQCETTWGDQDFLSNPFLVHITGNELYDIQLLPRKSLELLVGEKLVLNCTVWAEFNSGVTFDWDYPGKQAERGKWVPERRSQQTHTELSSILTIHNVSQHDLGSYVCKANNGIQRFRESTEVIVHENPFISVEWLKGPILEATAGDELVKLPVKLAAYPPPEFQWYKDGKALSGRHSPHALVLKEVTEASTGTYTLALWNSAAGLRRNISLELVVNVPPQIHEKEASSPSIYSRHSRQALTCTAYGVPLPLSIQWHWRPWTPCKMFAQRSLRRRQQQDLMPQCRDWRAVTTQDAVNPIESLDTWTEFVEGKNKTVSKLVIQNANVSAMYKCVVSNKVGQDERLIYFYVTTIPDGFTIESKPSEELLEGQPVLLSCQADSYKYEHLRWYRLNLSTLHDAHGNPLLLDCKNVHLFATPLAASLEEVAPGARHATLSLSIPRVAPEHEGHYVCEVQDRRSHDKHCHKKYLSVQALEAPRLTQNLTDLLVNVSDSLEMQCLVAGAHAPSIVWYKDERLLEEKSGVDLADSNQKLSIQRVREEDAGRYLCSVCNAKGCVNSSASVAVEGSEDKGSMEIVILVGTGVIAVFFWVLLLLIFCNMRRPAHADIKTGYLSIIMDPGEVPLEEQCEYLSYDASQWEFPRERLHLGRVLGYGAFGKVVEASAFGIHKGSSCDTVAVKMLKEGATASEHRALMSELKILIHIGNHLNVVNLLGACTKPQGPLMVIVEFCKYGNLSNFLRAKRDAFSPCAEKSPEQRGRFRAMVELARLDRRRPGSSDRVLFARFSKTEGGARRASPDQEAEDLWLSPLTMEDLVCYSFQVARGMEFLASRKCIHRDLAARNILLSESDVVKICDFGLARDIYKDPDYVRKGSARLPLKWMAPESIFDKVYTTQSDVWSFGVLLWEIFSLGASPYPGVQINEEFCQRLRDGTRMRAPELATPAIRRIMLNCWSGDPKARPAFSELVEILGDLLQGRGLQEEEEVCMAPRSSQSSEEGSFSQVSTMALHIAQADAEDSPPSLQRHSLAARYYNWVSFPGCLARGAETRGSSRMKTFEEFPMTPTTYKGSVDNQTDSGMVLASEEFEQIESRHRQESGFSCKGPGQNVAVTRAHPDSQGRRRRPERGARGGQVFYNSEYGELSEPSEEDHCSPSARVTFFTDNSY
Angiopoietin-1 receptor, sequence (Q02763 whole entry): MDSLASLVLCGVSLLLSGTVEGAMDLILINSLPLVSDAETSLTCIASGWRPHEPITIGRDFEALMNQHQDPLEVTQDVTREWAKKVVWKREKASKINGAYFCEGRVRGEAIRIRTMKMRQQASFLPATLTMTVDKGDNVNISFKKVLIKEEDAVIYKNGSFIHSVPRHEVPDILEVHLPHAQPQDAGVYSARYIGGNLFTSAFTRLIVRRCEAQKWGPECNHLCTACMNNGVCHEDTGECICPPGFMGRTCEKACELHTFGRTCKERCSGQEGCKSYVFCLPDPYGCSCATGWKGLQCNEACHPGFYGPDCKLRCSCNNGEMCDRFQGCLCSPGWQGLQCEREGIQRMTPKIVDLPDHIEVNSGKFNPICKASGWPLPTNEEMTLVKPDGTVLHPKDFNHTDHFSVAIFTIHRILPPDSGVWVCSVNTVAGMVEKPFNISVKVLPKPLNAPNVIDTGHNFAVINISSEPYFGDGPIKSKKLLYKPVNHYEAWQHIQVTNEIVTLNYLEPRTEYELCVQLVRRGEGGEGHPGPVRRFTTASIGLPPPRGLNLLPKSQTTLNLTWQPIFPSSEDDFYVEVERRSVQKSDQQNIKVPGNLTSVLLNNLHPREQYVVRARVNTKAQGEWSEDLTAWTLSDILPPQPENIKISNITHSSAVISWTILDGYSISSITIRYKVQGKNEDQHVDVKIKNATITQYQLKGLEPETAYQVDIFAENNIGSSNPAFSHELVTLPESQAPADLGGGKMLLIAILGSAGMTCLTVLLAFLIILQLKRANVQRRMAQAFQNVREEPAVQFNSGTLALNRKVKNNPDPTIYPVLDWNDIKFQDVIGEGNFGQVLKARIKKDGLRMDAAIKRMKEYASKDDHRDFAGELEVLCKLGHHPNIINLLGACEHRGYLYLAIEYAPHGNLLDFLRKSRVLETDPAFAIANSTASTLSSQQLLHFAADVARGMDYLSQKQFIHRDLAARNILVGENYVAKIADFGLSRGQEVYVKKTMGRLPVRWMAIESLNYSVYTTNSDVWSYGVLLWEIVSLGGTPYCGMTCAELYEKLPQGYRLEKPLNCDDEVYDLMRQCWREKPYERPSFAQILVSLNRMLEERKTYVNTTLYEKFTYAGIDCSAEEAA

## CC(C)(O)COc1ccc2c(Oc3ccc(Nc4nccc5[nH]cc(-c6ccccc6)c(=O)c45)cc3F)ccnc2c1
[1]
  Vd: 0.9 L/kg
[2]
  half-life: 5.37 h
[3]
  Cmax: 1500 ng/mL
HT-29
  IC50: 4.2 µM
[4]
  CL/F: 8.33 mL/min/kg
[5]
  AUC(0-inf): 10700 ng·h/mL
Angiopoietin-1 receptor
  IC50: 0.019 µM
[6]
  clearance: 3.33 mL/min/kg
[7]
  inhibition in vivo at 6 mg/kg: 57%
[8]
  inhibition in vivo at 37.5 mg/kg: 172%
[9]
  IC50: 0.116 µM
[10]
  AUC(0-inf): 6600 ng·h/mL
[11]
  half-life: 4 h
[12]
  Vz: 3.3 L/kg
cells
  IC50: 4.5 µM
Animal or person
  inhibition in vivo at 12.5 mg/kg: 131%
[13]
  Tmax: 4 h
NCI-H460
  IC50: 3.6 µM
[14]
  half-life: 4.9 h
[15]
  bioavailability: 32%
MKN-45
  IC50: 2.9 µM
U87
  TGI: Dose-dependent effect
[16]
  Cmax: 500 ng/mL
[17]
  inhibition in vivo at 3 mg/kg: 47%
[18]
  IC50: 0.0323 µM

## O=c1c(-c2ccc(F)cc2)c[nH]c2ccnc(Nc3ccc(Oc4ccnc5cc(O)ccc45)c(F)c3)c12
[2]
  half-life: 0.893 h
HT-29
  IC50: 5.9 µM
cells
  IC50: 7.2 µM
NCI-H460
  IC50: 43 µM
[19]
  IC50: 0.005 µM
MKN-45
  IC50: 5 µM

## COc1cc2c(Oc3ccc(Nc4nccc5[nH]cc(-c6ccc(F)cc6)c(=O)c45)cc3F)ccnc2cc1OCC(C)C
[19]
  IC50: 0.0197 µM

## COc1cc2nccc(Oc3ccc(Nc4nccc5[nH]cc(-c6ccc(F)cc6)c(=O)c45)cc3F)c2cc1OC
[19]
  IC50: 0.0766 µM

## COC(C)(C)COc1ccc2c(Oc3ccc(Nc4nccc5[nH]cc(-c6ccc(F)cc6)c(=O)c45)cc3F)ccnc2c1
[2]
  half-life: 1.45 h
HT-29
  IC50: 4.8 µM
cells
  IC50: 16.4 µM
NCI-H460
  IC50: 4.4 µM
[19]
  IC50: 0.0131 µM
MKN-45
  IC50: 5.5 µM

## CC(O)COc1ccc2c(Oc3ccc(Nc4nccc5[nH]cc(-c6ccc(F)cc6)c(=O)c45)cc3F)ccnc2c1 (stereo not given)
[2]
  half-life: 1.42 h
HT-29
  IC50: 3.9 µM
cells
  IC50: 8.5 µM
NCI-H460
  IC50: 3.4 µM
[19]
  IC50: 0.133 µM
MKN-45
  IC50: 3.1 µM

## COCCOc1ccc2c(Oc3ccc(Nc4nccc5[nH]cc(-c6ccc(F)cc6)c(=O)c45)cc3F)ccnc2c1
[2]
  half-life: 1.73 h
HT-29
  IC50: 6.5 µM
cells
  IC50: 5.1 µM
NCI-H460
  IC50: 4.3 µM
[19]
  IC50: 0.0084 µM
MKN-45
  IC50: 5.6 µM

## COc1cc2c(Oc3ccc(Nc4nccc5[nH]cc(-c6ccc(F)cc6)c(=O)c45)cc3F)ccnc2cc1OCC(C)(C)O
[2]
  half-life: 5.17 h
HT-29
  IC50: 2.1 µM
cells
  IC50: 2.6 µM
NCI-H460
  IC50: 1.7 µM
MKN-45
  IC50: 1.4 µM

## O=c1c(-c2ccc(F)cc2)c[nH]c2ccnc(Nc3ccc(Oc4ccnc5cc(OCCN6CCOCC6)ccc45)c(F)c3)c12
[2]
  half-life: 0.11 h

## CC(C)(O)COc1ccc2c(Oc3ccc(Nc4nccc5[nH]cc(-c6ccc(F)cc6)c(=O)c45)cc3F)ccnc2c1
[2]
  half-life: 4.14 h
HT-29
  IC50: 3.4 µM
cells
  IC50: 4.7 µM
NCI-H460
  IC50: 3.2 µM
MKN-45
  IC50: 2.7 µM

## COc1cc2c(Oc3ccc(Nc4nccc5[nH]cc(-c6ccc(F)cc6)c(=O)c45)cc3F)ccnc2cc1OCCO
[2]
  half-life: 1.48 h
HT-29
  IC50: 2.9 µM
cells
  IC50: 4.1 µM
NCI-H460
  IC50: 2 µM
[19]
  IC50: 0.0057 µM
MKN-45
  IC50: 1.6 µM

## O=c1c(-c2ccc(F)cc2)c[nH]c2ccnc(Nc3ccc(Oc4ccnc5cc(OCCO)ccc45)c(F)c3)c12
[2]
  half-life: 1.51 h
HT-29
  IC50: 5.5 µM
cells
  IC50: 4.9 µM
NCI-H460
  IC50: 3.5 µM
MKN-45
  IC50: 4.7 µM

## Cc1[nH]c2ccnc(Nc3ccc(Oc4ccnc5cc(OCC(C)(C)O)ccc45)c(F)c3)c2c(=O)c1-c1ccccc1
[19]
  IC50: 0.0403 µM

## COCCOc1cc2nccc(Oc3ccc(Nc4nccc5[nH]cc(-c6ccc(F)cc6)c(=O)c45)cc3F)c2cc1OC
[2]
  half-life: 1.06 h
HT-29
  IC50: 4.6 µM
cells
  IC50: 5.2 µM
NCI-H460
  IC50: 3 µM
[19]
  IC50: 0.083 µM
MKN-45
  IC50: 3.1 µM

## COCCOc1cc2nccc(Oc3ccc(Nc4nccc5[nH]cc(-c6ccccc6)c(=O)c45)cc3F)c2cc1OC
[19]
  IC50: 0.0077 µM

## CC(C)COc1ccc2c(Oc3ccc(Nc4nccc5[nH]cc(-c6ccc(F)cc6)c(=O)c45)cc3F)ccnc2c1
[2]
  half-life: 1.5 h
[19]
  IC50: 0.0278 µM

## COc1cc2c(Oc3ccc(Nc4nccc5[nH]cc(-c6ccc(F)cc6)c(=O)c45)cc3F)ccnc2cc1OCC(C)(C)OC
[19]
  IC50: 0.0121 µM

## O=c1c(-c2ccccc2)c[nH]c2ccnc(Nc3ccc(Oc4ccnc5cc(OCCCN6CCOCC6)ccc45)c(F)c3)c12
[2]
  half-life: 0.297 h

Reference: ChEMBL document CHEMBL4680210, “Discovery of 1,6-naphthyridinone-based MET kinase inhibitor bearing quinoline moiety as promising antitumor drug candidate” (Eur J Med Chem, 2020)
